Measurements reported in US20230227466A1, “SUBSTITUTED THIENOPYRIMIDINES THAT INTERACT WITH THE RAS SUPERFAMILY FOR THE TREATMENT OF CANCERS, INFLAMMATORY DISEASES, RASOPATHIES, AND FIBROTIC DISEASE” (SHY Therapeutics, LLC, priority 2020, published 2023).

How the values were obtained:
[1] = system: ERK1/2 phosphorylation in Panc-1 cells; assay: Western ERK1/2 cell-based phosphorylation assay; design: species or system human; settings: at 10 μM, values in brackets < > are activation %, not inhibition
Method: Cell lines: Human tumor-derived pancreatic cancer cell line Panc-1 was purchased from American Type Culture Collection and grown in complete DMEM-High Glucose, supplemented with penicillin (100 U/mL), streptomycin (100 μg/mL), and 10% heat-inactivated FBS at 37° C. in a humidified incubator with 5% CO2.
(§1) Method: Cells were plated at 350000 cells/well density in a 12-well plate, allowed 3 hours to adhere to the plate, then starved in the appropriate medium in the presence of 0.5% FBS overnight. The small molecules to be tested were added to the cells in the final concentration of 10 μM in the presence of 0.3% DMSO for 6 hours incubation at 37° C. For IC50 value determination, serial dilutions of compounds were added to cells under the same conditions. Next, cells were stimulated with 1.5 ng/ml EGF for 15 minutes then cells were lysed with lysis buffer containing 1% Triton X-100, EDTA, and Halt™ Protease & Phosphatase Inhibitor Cocktail (Thermo Scientific). Protein concentration was assessed by BCA protein assay (Thermo Scientific). Phosphorylation level of ERK1/2 was determined by western blot.
(§2) Western blot protocol: Equal amounts of protein (15-50 μg) were separated by SDS-PAGE and transferred to nitrocellulose membranes (Invitrogen by Thermo Fisher Scientific). The membrane was stained with Ponceau S Stain (Boston BioProducts) to verify uniform protein loading. Membranes were blocked with 10% milk and phosphorylation levels of ERK1/2 were assessed by incubating overnight at 4° C. with anti-phospho-p44/42 (Thr202/Tyr204) antibody (Cell Signaling) followed by HRP-conjugated secondary antibody (Jackson Immunoresearch, West Grove, Pa.). Bands were incubated in Amersham ECL Prime Western Blotting Detection Reagent (GE Healthcare) and visualized using the ChemiDoc MP imaging system (Bio-Rad). Protocol for Western AKT cell-based phosphorylation assay

[2] = system: MIA-PaCa-2 pancreatic cancer cell line (KRAS G12C); assay: Cell proliferation assay (CellTiter 96 Aqueous One); assay type: cell-based; settings: Homo sapiens; for IC50: MIA PaCa-2, MIA PaCa-2; for inhibition at 10 µM: MIA PaCa-2, read-out: % inh cell proliferation (10 μM) in MIA PaCa-2
Summary of the method: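 Percent inhibition of proliferation is derived from MTS absorbance data. Cells seeded at 2000–5000 per well were grown overnight before treatment. Compounds, at 10 μM final or in dilution series, stayed on cells for 2–4 days in medium containing 10% FBS and 0.3% DMSO.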

[3] = system: Akt phosphorylation in Panc-1 cells; assay: Western AKT cell-based phosphorylation assay; design: species or system human; settings: at 10 μM, values in brackets < > are activation %, not inhibition
Method: Human Tumor-Derived Pancreatic Cancer Cell Line Panc-1 was Purchased from
American Type Culture Collection and grown in complete DMEM-High Glucose supplemented with penicillin (100 U/mL), streptomycin (100 μg/mL), and 10% heat-inactivated FBS at 37° C. in a humidified incubator with 5% CO2.
as §1, with “C.” for “C. For IC50 value determination, serial dilutions of compounds were added to cells under the same conditions.”, “Akt” for “ERK1/2”
as §2, with “Akt” for “ERK1/2”, “anti-phospho-Akt (Ser473)” for “anti-phospho-p44/42 (Thr202/Tyr204)”, “(Bio-Rad).” for “(Bio-Rad). Protocol for Western AKT cell-based phosphorylation assay”

Compound	% inh of ERK1/2 phosphorylation in PANC-1 [1]	IC50 [2]	inhibition at 10 µM [2]	% inh of AKT phosphorylation in PANC-1 [3]
COCC1CCN(c2nc(-c3nccn3C)nc3sc(-c4ccn(C(C)C)n4)c(C(F)(F)F)c23)C1 (racemic) [Compound 74, Rac-6-(1-Isopropyl-1H-pyrazol-3-yl)-4-(3-(methoxymethyl)pyrrolidin-1-yl)-2-(1-methyl-1H-imidazol-2-yl)-5-(trifluoromethyl)thieno[2,3-d]pyrimidine]	D (76-100% inhibition)	< 1 µM	76 to 100%	0 (0% inhibition)
COC1CCCN(c2nc(-c3nccn3C)nc3sc(-c4ccn(C(C)C)n4)c(C(F)(F)F)c23)C1 (racemic) [Compound 75, Rac-6-(1-Isopropyl-1H-pyrazol-3-yl)-4-(3-methoxypiperidin-1-yl)-2-(1-methyl-1H-imidazol-2-yl)-5-(trifluoromethyl)thieno[2,3-d]pyrimidine]	D (76-100% inhibition)	5 to 10 µM	76 to 100%	0 (0% inhibition)
COCC1CCN(c2nc(-c3nccn3C)nc3sc(-c4ccn(C(C)C)n4)c(-c4ccccc4)c23)C1 (racemic) [Compound 76, Rac-6-(1-isopropyl-1H-pyrazol-3-yl)-4-(3-(methoxymethyl)pyrrolidin-1-yl)-2-(1-methyl-1H-imidazol-2-yl)-5-phenylthieno[2,3-d]pyrimidine]	D (76-100% inhibition)	< 1 µM	76 to 100%	0 (0% inhibition)
COC1CCCN(c2nc(-c3nccn3C)nc3sc(-c4ccn(C(C)C)n4)c(-c4ccccc4)c23)C1 (racemic) [Compound 77, Rac-6-(1-isopropyl-1H-pyrazol-3-yl)-4-(3-methoxypiperidin-1-yl)-2-(1-methyl-1H-imidazol-2-yl)-5-phenylthieno[2,3-d]pyrimidine]	B (26-50% inhibition)	5 to 10 µM	76 to 100%	<A>
CO[C@H]1CC[C@@H](Nc2nc(-c3nccn3C)nc3sc(-c4cc[nH]n4)c(-c4ccccc4)c23)C1 (racemic) [Example 1, Rac-N-((1R,3S)-3-methoxycyclopentyl)-2-(1-methyl-1H-imidazol-2-yl)-5-phenyl-6-(1H-pyrazol-3-yl)thieno[2,3-d]pyrimidin-4-amine]	0 (0% inhibition)	> 10 µM	0%	0 (0% inhibition)
CO[C@H]1CC[C@@H](Nc2nc(-c3nccn3C)nc3sc(-c4ccn(C(C)C)n4)c(-c4ccccc4)c23)C1 [Compound 5, 6-(1-Isopropyl-1H-pyrazol-3-yl)-N-((1R,3S)-3-methoxycyclopentyl)-2-(1-methyl-1H-imidazol-2-yl)-5-phenylthieno[2,3-d]pyrimidin-4-amine]	D (76-100% inhibition)	< 1 µM	76 to 100%	D (76-100% inhibition)
COCCn1ccnc1-c1nc(N[C@H]2C[C@@H](OC)C2)c2c(-c3ccccc3)c(-c3ccn(C)n3)sc2n1 [Compound 7, N-((1s,3s)-3-Methoxycyclobutyl)-2-(1-(2-methoxyethyl)-1H-imidazol-2-yl)-6-(1-methyl-1H-pyrazol-3-yl)-5-phenylthieno[2,3-d]pyrimidin-4-amine]	D (76-100% inhibition)	1 to 4.99 µM	76 to 100%	0 (0% inhibition)
COCCn1ccnc1-c1nc(N[C@H]2C[C@@H](OC)C2)c2ccsc2n1 [Compound 9, N-((1s,3s)-3-Methoxycyclobutyl)-2-(1-(2-methoxyethyl)-1H-imidazol-2-yl)thieno[2,3-d]pyrimidin-4-amine]	0 (0% inhibition)	> 10 µM	1 to 25%	0 (0% inhibition)
NC(=O)c1nc(O)c2scc(-c3ccccn3)c2n1 [Compound 18, 4-Hydroxy-7-(pyridin-2-yl)thieno[3,2-d]pyrimidine-2-carboxamide]	0 (0% inhibition)	> 10 µM	0%	0 (0% inhibition)
O=C(c1nc(O)c2scc(-c3ccccn3)c2n1)N1CCCC1 [Compound 19, (4-Hydroxy-7-(pyridin-2-yl)thieno[3,2-d]pyrimidin-2-yl)(pyrrolidin-1-yl)methanone]	0 (0% inhibition)	> 10 µM	0%	0 (0% inhibition)
CC(C)NC(=O)c1nc(O)c2scc(-c3ccccn3)c2n1 [Compound 20, 4-Hydroxy-N-isopropyl-7-(pyridin-2-yl)thieno[3,2-d]pyrimidine-2-carboxamide]	0 (0% inhibition)	> 10 µM	1 to 25%	0 (0% inhibition)
COCCNC(=O)c1nc(O)c2scc(-c3ccccn3)c2n1 [Compound 21, 4-Hydroxy-N-(2-methoxyethyl)-7-(pyridin-2-yl)thieno[3,2-d]pyrimidine-2-carboxamide]	0 (0% inhibition)	> 10 µM	1 to 25%	0 (0% inhibition)
O=C(c1nc(O)c2scc(-c3ccccn3)c2n1)N1CCOCC1 [Compound 22, (4-Hydroxy-7-(pyridin-2-yl)thieno[3,2-d]pyrimidin-2-yl)(morpholino)methanone]	0 (0% inhibition)	> 10 µM	1 to 25%	0 (0% inhibition)
O=C(Nc1ccccc1)c1nc(O)c2scc(-c3ccccn3)c2n1 [Compound 23, 4-Hydroxy-N-phenyl-7-(pyridin-2-yl)thieno[3,2-d]pyrimidine-2-carboxamide]	0 (0% inhibition)	> 10 µM	0%	0 (0% inhibition)
O=C(Nc1ccccn1)c1nc(O)c2scc(-c3ccccn3)c2n1 [Compound 24, 4-Hydroxy-N,7-di(pyridin-2-yl)thieno[3,2-d]pyrimidine-2-carboxamide]	0 (0% inhibition)	> 10 µM	1 to 25%	0 (0% inhibition)
Cc1sc2c(O)nc(-c3ccccn3)nc2c1-c1ccccn1 [Compound 26, 6-Methyl-2,7-di(pyridin-2-yl)thieno[3,2-d]pyrimidin-4-ol]	0 (0% inhibition)	5 to 10 µM	51 to 75%	0 (0% inhibition)
Cn1ccnc1-c1nc(O)c2scc(-c3ncccc3F)c2n1 [Compound 30, 7-(3-Fluoropyridin-2-yl)-2-(1-methyl-1H-imidazol-2-yl)thieno[3,2-d]pyrimidin-4-ol]	0 (0% inhibition)	> 10 µM	26 to 50%	0 (0% inhibition)
